Data from US5294611A, “Angiotensin II receptor blocking 2,3,6 substituted quinazolinones” (American Cyanamid Company, priority 1993, dated 1994).

Target: T1, Angiotensin II Receptor (Bos taurus, UniProt P25104)
T1 construct: The brownish tissue forming the adrenal cortex is scraped off and finely minced with scissors before homogenization; tissue local slaughter house (maxwell-Cohen); host or cells: beef adrenal cortex, 100,000 x g microsomal membranes
T1 sequence (P25104 1-359): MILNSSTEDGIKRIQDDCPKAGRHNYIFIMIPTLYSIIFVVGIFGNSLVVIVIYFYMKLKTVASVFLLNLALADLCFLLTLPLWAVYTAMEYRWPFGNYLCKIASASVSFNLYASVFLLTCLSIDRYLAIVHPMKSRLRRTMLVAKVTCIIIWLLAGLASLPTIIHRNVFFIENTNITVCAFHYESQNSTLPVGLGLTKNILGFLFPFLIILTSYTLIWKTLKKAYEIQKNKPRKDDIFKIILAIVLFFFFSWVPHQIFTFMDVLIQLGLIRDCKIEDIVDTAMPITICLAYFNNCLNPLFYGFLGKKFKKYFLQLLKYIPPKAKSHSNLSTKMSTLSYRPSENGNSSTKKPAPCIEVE
Experiment: Receptor Binding Assay: displacement of [^125 I](Sar^1,Ile^8)AngII from adrenal cortex microsomal membranes
Parameters: species or system beef (bovine adrenals)
Excerpt: Beef adrenals are obtained from a local slaughter house (maxwell-Cohen). [^125 I](Sar^1,Ile^8)AngII, S.A. 2200 Ci/mmole, is purchased from Dupont (NEN®, Boston, Mass.). All unlabeled AngII analogs, Dimethylsulfoxide (DMSO), nucleotides, bovine serum albumin (BSA) are purchased from Sigma Chemical Co., St. Louis, Mo. U.S.A.
Approximately sixteen (16) to twenty (20) beef adrenal glands are processed as follows: fresh adrenal glands received on crushed ice are cleaned of fatty tissues and the tough membranes encapsulating the glands are removed and discarded. The brownish tissue forming the adrenal cortex is scraped off and finely minced with scissors before homogenization. Care is taken to avoid contamination with medullary tissue during dissection. The scraped cortices are suspended in twenty volumes of an ice-cold buffer medium consisting of 10 mM Tris.HCl (pH 7.4 at 22° C.) and containing 1.0 mM EDTA and 0.2M sucrose. Unless otherwise indicated, all subsequent operations are done at 4° C. […] The homogenate is centrifuged first at low speed (3,000× g) for 10 min. The resulting pellet is discarded and the supernatant fluid recentrifuged at 10,000× g for 15 minutes to give a P2 pellet. This P2 pellet is discarded and the liquid phase is carefully decanted off in clean centrifuge tubes and recentrifuged at high speed (100,000× g) for 60 min. The translucent final pellet is harvested and combined in a small volume (20-50.0 ml) of 50.0 mM Tris.HCl buffer, pH 7.2. A 100 ul aliquot is withdrawn and the protein content of the preparation is determined by the Lowry's method (Lowry, O. H., Rosebrough, N. F., Parr, A. L. and Randall, R. J., Protein measurement with Folin phenol reagent. J. Biol. Chem., 48, 265-275; 1951). The pelleted membrane is reconstituted in 50.0 mM Tris.HCl buffer containing 0.1 mM of phenylmethylsulfonyl fluoride (PMSF) to give approximately a protein concentration of 2.5 mg per ml of tissue suspension. The membrane preparation is finally aliquoted in 1.0 ml volumes and stored at -70° C. until use in the binding assays.
The binding of [^125 I](Sar^1,Ile^8)AngII to microsomal membranes is initiated by the addition of reconstituted membranes (1:10 vols.) in freshly made 50.0 mM Tris.HCl buffer, pH 7.4 containing 0.25% heat inactivated bovine serum albumin (BSA): 80 ul membrane protein (10 to 20 ug/assay) to wells already containing 100 ul of incubation buffer (as described above) and 20 ul [^125 I](Sar^1,ILE^8)AngII (Specific Activity, 2200 Ci/mmole). Non-specific binding is measured in the presence of 1.0 uM unlabeled (Sar^1,ILE^8)AngII, added in 20 ul volume. […] In competition studies, experimental compounds are diluted in dimethylsulfoxide (DMSO) and added in 20 ul to wells before the introduction of tissue membranes. […] Assays are performed in triplicate. The wells are left undisturbed for 60 min. at room temperature. Following incubation, all wells are harvested at once with a Brandel® Harvester especially designed for a 96 well plate (Brandel® Biomedical Research & Development Labs. Inc., Gaithersburg, Md., U.S.A.). The filter discs are washed with 10×1.0 ml of cold 0.9% NaCl to remove unbound ligand. […] This method is routinely used. The filters are removed from the filter grid and counted in a Parkard® Cobra Gamma Counter for 1 min. (Packard Instrument Co., Downers Grove, Ill., U.S.A.). The binding data are analyzed by the non-linear interactive "LUNDON-1" program (LUNDON SOFTWARE Inc., Cleveland, Ohio U.S.A.).

Compound	IC50
CCCCc1nc2ccc([C@H]3[C@@H]4C(=O)CC[C@@H]4ON3C)cc2c(=O)n1Cc1ccc(-c2ccccc2-c2nnn[nH]2)cc1 (relative stereo) [Example 48]	57 nM
CCCCc1nc2ccc([C@@H]3[C@H]4C(=O)CCC[C@H]4ON3C)cc2c(=O)n1Cc1ccc(-c2ccccc2-c2nnn[nH]2)cc1 (relative stereo) [Example 49]	880 nM
CCCCc1nc2ccc([C@H]3[C@@H]4C(=O)OC[C@@H]4ON3C)cc2c(=O)n1Cc1ccc(-c2ccccc2-c2nnn[nH]2)cc1 (relative stereo) [Example 53]	71 nM
CCCCc1nc2ccc([C@H]3[C@@H]4C(=O)CC[C@@H]4ON3Cc3ccccc3)cc2c(=O)n1Cc1ccc(-c2ccccc2-c2nnn[nH]2)cc1 (relative stereo) [Example 55]	78 nM
CCCCc1nc2ccc([C@H]3[C@@H]4C(=O)OC[C@@H]4ON3Cc3ccccc3)cc2c(=O)n1Cc1ccc(-c2ccccc2-c2nnn[nH]2)cc1 (relative stereo) [Example 57]	180 nM
CCCCc1nc2ccc([C@H]3[C@@H]4C5CCC(C5)[C@@H]4ON3C)cc2c(=O)n1Cc1ccc(-c2ccccc2-c2nnn[nH]2)cc1 (stereo partly drawn) [Example 51]	150 nM
